29 compounds from ChEMBL document CHEMBL6074641, “Polypharmacological Drug Design Guided by Integrating Phenotypic and Restricted Fragment Docking Strategies” (J Med Chem, 2024) can be followed below.

The target of series [1] is T1, Receptor-interacting serine/threonine-protein kinase 1 (Homo sapiens) (UniProt Q13546).
T1 sequence (whole entry): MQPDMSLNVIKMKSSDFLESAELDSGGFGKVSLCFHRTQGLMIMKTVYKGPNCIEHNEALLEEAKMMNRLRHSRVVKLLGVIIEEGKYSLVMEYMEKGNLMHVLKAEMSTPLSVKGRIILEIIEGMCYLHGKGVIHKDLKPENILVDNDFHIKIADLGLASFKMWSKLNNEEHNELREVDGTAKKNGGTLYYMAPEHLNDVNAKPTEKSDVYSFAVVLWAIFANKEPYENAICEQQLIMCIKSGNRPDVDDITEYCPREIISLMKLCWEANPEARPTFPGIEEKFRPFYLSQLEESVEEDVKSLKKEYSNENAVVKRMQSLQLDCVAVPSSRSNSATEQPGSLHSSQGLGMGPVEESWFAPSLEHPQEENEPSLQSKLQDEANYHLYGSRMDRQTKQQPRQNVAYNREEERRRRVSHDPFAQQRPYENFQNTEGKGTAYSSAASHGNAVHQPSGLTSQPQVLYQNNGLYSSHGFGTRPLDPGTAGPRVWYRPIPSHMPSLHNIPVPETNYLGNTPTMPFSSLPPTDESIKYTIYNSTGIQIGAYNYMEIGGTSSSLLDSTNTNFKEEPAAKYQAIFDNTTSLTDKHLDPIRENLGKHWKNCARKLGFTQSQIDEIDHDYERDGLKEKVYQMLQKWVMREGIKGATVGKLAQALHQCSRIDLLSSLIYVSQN
Put plainly: (§1) Inhibition of recombinant RIPK1 (1 to 327 residues) (unknown origin) expressed in Escherichia coli BL21([…]) using MBP as substrate preincubated for 15 mins followed by substrate and ATP addition and measured after 90 mins by ADP-Glo luminescence […] assay. Particulars: time 105.0 min. In general terms: ADP-Glo turns the ADP formed in a reaction into a luminescent signal.

Series [2] relates to BV-2. Nature of the series: Anti-necroptosis activity in LPS/zVAD stimulated mouse BV-2 cells preincubated with LPS for 11 hrs followed by compound addition for 1 hr and exposed to zVAD-fmk for another 24 hrs by Cellcounting-Lite 2.0 luminescent cell viability assay. Particulars: time 25.0 hrs.
Series [3] has as its target ALK tyrosine kinase receptor (Homo sapiens, UniProt Q9UM73). Nature of the series: Inhibition of recombinant ALK (1060 to end residues) (unknown origin) expressed in Escherichia coli […] using IGF1Rtide as substrate preincubated for 15 mins followed by substrate and ATP addition and measured after 90 mins by ADP-Glo luminescence […] assay.
In series [4] the target is T2, Receptor-interacting serine/threonine-protein kinase 1 (Homo sapiens, UniProt Q13546).
T2 sequence (Q13546 whole entry): T1 sequence (whole entry)
Described as §1.

Series [5] addresses Mitogen-activated protein kinase kinase kinase kinase 4 (Homo sapiens, UniProt O95819). Nature of the series: Inhibition of recombinant MAP4K4 (1 to 328 residues) (unknown origin) expressed in Escherichia coli BL21([…]) using MBP as substrate preincubated for 15 mins followed by substrate and ATP addition and measured after 90 mins by ADP-Glo luminescence […] assay.

For series [6], the system named is BV-2. Nature of the series: cells. The conditions noted are these: Mus musculus.
Series [7] concerns BV-2. Nature of the series: Cytotoxicity against mouse BV-2 cells. The series is classed as toxicity, cell-based.
Series [8] deals with BV-2. Put plainly: Synergistic anti-necroptosis activity in LPS/zVAD stimulated mouse BV-2 cells preincubated with LPS for 11 hrs followed by compound addition for 1 hr and exposed to zVAD-fmk for another 24 hrs in presence of Nec-1 by Cellcounting-Lite 2.0 luminescent cell viability assay. The series is classed as functional, cell-based. The conditions noted are these: time 25.0 hrs.

Series [9] relates to BV-2. Nature of the series: Anti-necroptosis activity in LPS/zVAD stimulated mouse BV-2 cells at 10 uM preincubated with LPS for 11 hrs followed by compound addition for 1 hr and exposed to zVAD-fmk for another 24 hrs by Cellcounting-Lite 2.0 luminescent cell viability assay. The series is classed as functional, cell-based. The conditions noted are these: time 25.0 hrs.
The subject of series [10] is BV-2. Nature of the series: Synergistic anti-necroptosis activity in LPS/zVAD stimulated mouse BV-2 cells preincubated with LPS for 11 hrs followed by compound addition for 1 hr and exposed to zVAD-fmk for another 24 hrs in presence of crizotinib by Cellcounting-Lite 2.0 luminescent cell viability assay. The format is functional, cell-based. Particulars: time 25.0 hrs.

pEC50, pIC50: −log10 of the molar value. The source made the active and inactive calls. The calls are words filed in the database; no cut-off is given here.

By pIC50 is commonly meant −log10 of the IC50, conventionally taken in molar units. As a reminder, the pEC50 is the EC50 on a negative log10 scale, so that one unit is a factor of ten. Read a high pEC50 as a small EC50.

Sequence of Mitogen-activated protein kinase kinase kinase kinase 4 (O95819 whole entry, the tested form may be a part): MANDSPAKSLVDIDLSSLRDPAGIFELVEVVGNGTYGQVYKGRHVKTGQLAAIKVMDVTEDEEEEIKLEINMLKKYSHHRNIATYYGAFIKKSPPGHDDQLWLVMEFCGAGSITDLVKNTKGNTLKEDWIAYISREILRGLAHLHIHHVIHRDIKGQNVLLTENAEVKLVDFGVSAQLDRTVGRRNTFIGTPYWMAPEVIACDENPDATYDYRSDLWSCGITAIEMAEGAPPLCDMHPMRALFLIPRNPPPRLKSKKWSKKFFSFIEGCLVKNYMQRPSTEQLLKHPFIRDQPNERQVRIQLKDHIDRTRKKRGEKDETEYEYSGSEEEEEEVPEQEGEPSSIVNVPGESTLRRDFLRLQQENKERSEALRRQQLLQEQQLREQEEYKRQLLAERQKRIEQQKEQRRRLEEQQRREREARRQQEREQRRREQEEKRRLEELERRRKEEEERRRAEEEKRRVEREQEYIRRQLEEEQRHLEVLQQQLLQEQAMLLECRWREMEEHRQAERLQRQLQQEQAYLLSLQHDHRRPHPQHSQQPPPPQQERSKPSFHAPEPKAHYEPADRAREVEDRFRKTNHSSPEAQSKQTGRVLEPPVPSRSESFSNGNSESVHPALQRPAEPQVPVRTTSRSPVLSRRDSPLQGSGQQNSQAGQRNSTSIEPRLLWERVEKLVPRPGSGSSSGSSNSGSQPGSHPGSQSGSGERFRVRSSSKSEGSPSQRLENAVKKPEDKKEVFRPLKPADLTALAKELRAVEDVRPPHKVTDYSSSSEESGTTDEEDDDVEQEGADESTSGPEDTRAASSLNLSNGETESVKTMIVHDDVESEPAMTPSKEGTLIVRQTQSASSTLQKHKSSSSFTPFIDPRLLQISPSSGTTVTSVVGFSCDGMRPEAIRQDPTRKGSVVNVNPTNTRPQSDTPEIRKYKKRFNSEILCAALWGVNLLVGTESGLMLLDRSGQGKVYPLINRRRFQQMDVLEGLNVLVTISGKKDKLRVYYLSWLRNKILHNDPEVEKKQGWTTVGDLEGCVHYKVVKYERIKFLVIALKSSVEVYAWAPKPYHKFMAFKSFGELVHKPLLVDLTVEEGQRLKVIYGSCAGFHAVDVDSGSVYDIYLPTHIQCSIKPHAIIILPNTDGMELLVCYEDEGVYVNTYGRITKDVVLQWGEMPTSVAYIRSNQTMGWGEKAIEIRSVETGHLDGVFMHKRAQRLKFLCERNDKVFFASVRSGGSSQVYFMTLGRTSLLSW
Sequence of ALK tyrosine kinase receptor (Q9UM73 whole entry): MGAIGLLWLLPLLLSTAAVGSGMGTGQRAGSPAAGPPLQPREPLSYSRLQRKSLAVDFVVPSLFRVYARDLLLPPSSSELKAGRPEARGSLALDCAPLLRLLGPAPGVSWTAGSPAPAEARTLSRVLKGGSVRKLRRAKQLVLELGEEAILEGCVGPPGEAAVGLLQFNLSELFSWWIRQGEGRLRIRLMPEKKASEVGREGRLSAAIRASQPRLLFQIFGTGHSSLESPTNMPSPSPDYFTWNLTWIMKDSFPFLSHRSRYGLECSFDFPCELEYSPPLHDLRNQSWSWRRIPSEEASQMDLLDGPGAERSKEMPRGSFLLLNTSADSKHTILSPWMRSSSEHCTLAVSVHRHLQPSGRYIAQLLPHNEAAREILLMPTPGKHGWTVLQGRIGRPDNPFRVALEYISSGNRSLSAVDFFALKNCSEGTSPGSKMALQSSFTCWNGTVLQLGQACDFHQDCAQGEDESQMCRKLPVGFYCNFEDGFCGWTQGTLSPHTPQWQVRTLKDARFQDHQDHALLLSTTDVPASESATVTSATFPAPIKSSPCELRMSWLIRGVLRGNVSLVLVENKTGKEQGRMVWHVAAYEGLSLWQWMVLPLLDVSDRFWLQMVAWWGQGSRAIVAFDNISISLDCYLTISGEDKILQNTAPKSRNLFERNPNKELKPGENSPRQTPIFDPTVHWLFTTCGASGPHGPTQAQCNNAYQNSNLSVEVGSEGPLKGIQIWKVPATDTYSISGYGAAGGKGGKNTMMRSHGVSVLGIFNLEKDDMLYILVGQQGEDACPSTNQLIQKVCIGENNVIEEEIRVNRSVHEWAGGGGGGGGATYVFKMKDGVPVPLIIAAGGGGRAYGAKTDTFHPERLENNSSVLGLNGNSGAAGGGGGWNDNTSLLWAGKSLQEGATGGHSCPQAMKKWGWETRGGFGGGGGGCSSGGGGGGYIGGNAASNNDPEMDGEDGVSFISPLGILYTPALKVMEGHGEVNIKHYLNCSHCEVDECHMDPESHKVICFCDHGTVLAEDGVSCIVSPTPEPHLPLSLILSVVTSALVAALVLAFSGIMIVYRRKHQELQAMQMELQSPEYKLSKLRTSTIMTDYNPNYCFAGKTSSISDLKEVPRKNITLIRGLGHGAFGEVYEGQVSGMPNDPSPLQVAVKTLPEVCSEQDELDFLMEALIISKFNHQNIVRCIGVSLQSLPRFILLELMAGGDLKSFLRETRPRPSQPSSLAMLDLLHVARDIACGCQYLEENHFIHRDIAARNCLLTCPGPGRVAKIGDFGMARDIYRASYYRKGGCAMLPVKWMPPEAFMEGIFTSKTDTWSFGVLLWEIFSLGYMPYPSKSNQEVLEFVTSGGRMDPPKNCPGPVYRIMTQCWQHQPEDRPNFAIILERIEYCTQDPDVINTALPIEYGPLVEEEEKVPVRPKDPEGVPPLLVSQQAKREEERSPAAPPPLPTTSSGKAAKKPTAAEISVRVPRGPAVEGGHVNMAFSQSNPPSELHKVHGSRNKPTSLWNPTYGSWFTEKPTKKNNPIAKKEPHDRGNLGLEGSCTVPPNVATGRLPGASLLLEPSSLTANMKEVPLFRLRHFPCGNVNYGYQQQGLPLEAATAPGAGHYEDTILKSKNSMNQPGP

As for `Cc1cc(C)c(C(N)=O)c(Nc2ccc(Cl)cc2)n1`, the Inhibition activity call in series [1] is “Active”. The outcome with BV-2 [2] was Active.

For `Cc1cc(F)cc(Nc2ncc(Nc3ccccc3)cc2C(N)=O)c1`, the negative-log IC50 (pIC50) is 5.90 in series [3], 6.42 in series [4] and 6.12 in [5]. For the same compound, the pEC50 in the series with BV-2 [6] was 6.43.

Take `Cc1cc(F)cc(Nc2ncc(Nc3ccc(C#N)cc3)cc2C(N)=O)c1`: the pIC50 in series [3] is 5.52; in [4] it was 6.46; in series [5], 6.36. Further, the pEC50 with BV-2 [6] is 6.62.

Regarding `Cc1cc(F)cc(Nc2ncc(Nc3ccccc3C)cc2C(N)=O)c1`, the negative logarithm of the IC50 (pIC50) in [5] is 6.01. This compound showed a pEC50 in the series on BV-2 [6] of less than 5.52.

As to `C[C@@H](Oc1cc(-c2cnn(C3CCNCC3)c2)cnc1N)c1c(Cl)ccc(F)c1Cl` [CRIZOTINIB], the Activity entry in the series on BV-2 [7] was “Non-toxic”.

In the case of `Cc1cc(F)cc(Nc2ncc(Nc3ccc(C(C)(C)C)cc3)cc2C(N)=O)c1`, the pIC50 in [3] was 6.08; in series [4], 6.30. The compound further had a pEC50 in the series with BV-2 [6] of 6.36.

Regarding `Cc1cc(C)cc(Nc2cnc(Nc3cc(C)cc(F)c3)c(C(N)=O)c2)c1`, the negative logarithm of the IC50 (pIC50) in [3] is 6.68; in series [4], 6.37; in series [5] it was 6.03.

Consider `O=C1c2cccc3cccc(c23)N1Cc1ccc(F)cc1`, for which, in series [1], the Inhibition activity call is “Active”. Besides, the outcome in the series with BV-2 [2] was Active.

For the compound `COc1ccc(Nc2cnc(Nc3cc(C)cc(F)c3)c(C(N)=O)c2)c(F)c1`, the pIC50 in series [3] is 5.84; in series [4], 6.02; in series [5], 5.50. The compound also gave a pEC50 with BV-2 [6] of 5.81.

As for `Cc1cc(Nc2ncc(Cl)c(Nc3ccccc3S(=O)(=O)C(C)C)n2)c(OC(C)C)cc1C1CCNCC1` [CERITINIB], the outcome in the series with BV-2 [2] was inactive. Besides, the Activity result in the series with BV-2 [7] is recorded as “Toxic”.

In the case of `Cc1cc(F)cc(Nc2ncc(Nc3ccccc3Cl)cc2C(N)=O)c1`, the pIC50 in series [3] is 6.31; in [4], 5.89; in series [5], 6.12. In the series with BV-2 [6], this compound had a negative logarithm of the EC50 (pEC50) of less than 5.52.

With `Cc1cc(F)cc(Nc2ncc(Nc3ccc4c(c3)CCCC4)cc2C(N)=O)c1`, the pIC50 is 6.16 in series [4] and 5.65 in series [5]. This compound showed a pEC50 with BV-2 [6] of 6.70.

With `Cc1cc(F)cc(Nc2ncc(Nc3ccc(C(F)(F)F)cc3)cc2C(N)=O)c1`, the negative-log IC50 (pIC50) in [3] was 5.42; in series [4], 6.38; in series [5] it was 5.85. For the same compound, the pEC50 in the series with BV-2 [6] was 6.68.

On to `CCCc1ccc(Nc2cnc(Nc3cc(C)cc(F)c3)c(C(N)=O)c2)cc1`, for which the figures for the pIC50 in [3], in series [4] and in series [5] were 5.48, 5.83 and 4.89, respectively. The same compound had a negative-log EC50 (pEC50) with BV-2 [6] of less than 5.52.

On to `Cc1cc(F)cc(Nc2ncccc2C(N)=O)c1`, for which the negative-log IC50 (pIC50) was 6.21 in [3], 6.62 in series [4] and 6.18 in [5]. The pEC50 in the series with BV-2 [6] was 6.32.

Turning to `COc1ccc(Nc2cnc(Nc3cc(C)cc(F)c3)c(C(N)=O)c2)cc1`, the negative-log IC50 (pIC50) is 5.81 in series [3], 6.52 in series [4] and 5.74 in series [5]. Moreover, in the series with BV-2 [6], the pEC50 was 6.85.

On to `CN(C(=O)c1cccn(Cc2cccc(F)c2)c1=O)c1ccccc1`, for which, in series [1], the Inhibition activity call was “Active”. In addition, the outcome with BV-2 [2] was Active.

As to `Nc1cc(-c2ccc(Br)cc2)nn1Cc1ccccc1`, the Inhibition activity call in [1] is “Active”. Besides, the outcome in the series with BV-2 [2] was Active.

Regarding `COc1ccc(Nc2cnc(Nc3cc(C)cc(F)c3)c(C(N)=O)c2)c(C)c1`, the negative-log IC50 (pIC50) in series [5] was 5.03. The compound also showed a negative-log EC50 (pEC50) in the series on BV-2 [6] of less than 5.52.

For `Cc1cc(F)cc(Nc2ncc(Nc3ccc(-c4ccco4)cc3)cc2C(N)=O)c1`, the pIC50 in series [3] was 5.84; in series [4] it was 6.44; in series [5] it was 6.19. Further, in the series with BV-2 [6], the negative logarithm of the EC50 (pEC50) was 6.92.

`O=C(NCCc1ccccc1)C1CCN(C(=O)c2ccccc2F)CC1`: in [1], the Inhibition activity call is “Active”. In addition, the outcome in the series with BV-2 [2] was Active.

Turning to `Cc1cc(F)cc(Nc2ncc(Nc3ccc(C)c(C)c3)cc2C(N)=O)c1`, the pIC50 is 5.98 in series [3], 5.80 in series [4] and 5.86 in [5]. The pEC50 in the series with BV-2 [6] is less than 5.52.

For the compound `C=Cc1ccc(Nc2cnc(Nc3cc(C)cc(F)c3)c(C(N)=O)c2)cc1`, the pIC50 in [4] was 6.32; in [5] it was 6.46. In addition, the pEC50 with BV-2 [6] was 6.85.

With `Cc1cc(F)cc(Nc2ncc(Nc3ccc4c(c3)OCO4)cc2C(N)=O)c1`, the figures for the pIC50 in [4] and in series [5] were 6.18 and 5.65, respectively. The compound further had a negative logarithm of the EC50 (pEC50) in the series on BV-2 [6] of 6.80.

Regarding `Cc1cc(F)cc(Nc2ncc(Nc3ccc(F)cc3F)cc2C(N)=O)c1`, the negative logarithm of the IC50 (pIC50) in series [3] was 6.11; in [4], 6.54; in series [5], 5.72. Also, the pEC50 with BV-2 [6] is 6.82.

Regarding `Cc1cc(F)cc(Nc2ncc(Nc3ccc(Oc4ccccc4)cc3)cc2C(N)=O)c1`, the negative logarithm of the IC50 (pIC50) in series [3] was 5.42; in [4] it was 6.06; in series [5] it was 5.37. The pEC50 with BV-2 [6] is 5.58.

With `Cc1c(Cc2ccccc2)sc(NC(=O)c2ccccc2)c1C(N)=O`, the Inhibition activity call in series [1] was “Active”. Further, the outcome in the series with BV-2 [2] was Active.

For `Cc1cc(F)cc(Nc2ncc(Nc3cccc(C#N)c3)cc2C(N)=O)c1`, the pIC50 in series [3] was 5.65; in series [4] it was 5.92; in series [5], 6.28. In the series with BV-2 [6], this compound had a pEC50 of less than 5.52.

Turning to `Nc1ccc(-c2cnc(N)c(-c3ccc(Cl)cc3)c2)cn1`, the outcome in the series on BV-2 [8] and in the series with BV-2 [10] was inactive. The Activity entry in the series with BV-2 [9] is on record as “Active; Activity Similar To Nec-1”.
